# Results published in publication PMC3498355, “Isomeric Mono-, Di-, and Tri-Bromobenzo-1H-Triazoles as Inhibitors of Human Protein Kinase CK2α” (PLoS ONE, 2012).
# Like-named read-outs stand apart in the source and are kept apart here.
# Tests used:
# [1] = parameters: method as in PMID 20734498, PMID 22632480; conditions: ab initio, calculated previously; cited from earlier work
# [2] = target: T1, human CK2α (Homo sapiens, UniProt P68400); experiment: CK2α activity, P81 filter isotopic assay (inhibition, IC50); assay type: biochemical
# T1 construct: CK2α was from KinaseDetect Aps; purchased KinaseDetect Aps
# T1 sequence (P68400 whole entry): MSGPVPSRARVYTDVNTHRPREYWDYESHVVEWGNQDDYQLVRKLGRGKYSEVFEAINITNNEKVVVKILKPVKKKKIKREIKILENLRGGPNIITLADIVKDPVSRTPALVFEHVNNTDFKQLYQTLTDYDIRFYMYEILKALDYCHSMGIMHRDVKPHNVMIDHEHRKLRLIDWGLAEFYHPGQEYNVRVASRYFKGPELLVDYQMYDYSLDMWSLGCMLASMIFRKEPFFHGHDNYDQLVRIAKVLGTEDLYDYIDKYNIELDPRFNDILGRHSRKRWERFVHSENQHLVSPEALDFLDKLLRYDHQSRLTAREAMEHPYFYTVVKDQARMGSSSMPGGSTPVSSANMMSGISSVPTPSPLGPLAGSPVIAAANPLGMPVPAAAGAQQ
# Procedure: CK2α activity was monitored using the P81 filter isotopic assay. The reaction mixture contained 20 mM Tris-HCl, pH 7.5, 20 mM MgCl2, 20 µM DTT, 20 µM peptide substrate, 0.5 mM β-glycerol, 0.1 mM EGTA, 10 µM ATP (200–300 cpm/pmol) and CK2α (0.4 µg/µl). The reaction was initiated with enzyme in a total volume of 50 µl, and incubated at 30°C for 20 min. 10 µl of a reaction mixture was spotted onto a P81 filter. The filter papers were washed 3× with 0.6% phosphoric acid, once with 95% ethanol, then counted in a scintillation counter (Canberra-Packard).
# ATP, and Cmax and Cmin are the asymptotic values.
# [3] = parameters: method as in PMID 20734498, PMID 22632480; conditions: cited from earlier work; for Cw (aqueous solubility): experimental
# [4] = parameters: method as in PMID 20734498, PMID 22632480; conditions: experimental, aqueous medium; cited from earlier work
# [5] = parameters: method as in PMID 20734498, PMID 22632480; conditions: ab initio, calculated previously; cited from earlier work; remark: listed apart in the source
# [6] = tested on: protein kinase CK2; conditions: cited from earlier work
# [7] = 10 µM ATP, 20 µM peptide substrate, pH 7.5, 30°C, 20 min
# [8] = acidic solution, compared with neutral pH
Compound,ΔGdiss (free energy of proton dissociation) [1] [kcal/mol],"IC50 [2, 7] [µM]",Cw (aqueous solubility) [3] [µM],pKa (triazole proton dissociation) [4],ΔGsolv (free energy of solvation of the anionic form) [5] [kcal/mol],further results
"Brc1cc(Br)c2[nH]nnc2c1Br [4,5,7-Br3Bt]",52.2,5.8 ± 0.9,1040,5.38,-41.9,
"Cc1c(C)c(C)c2[nH]nnc2c1C [4,5,6,7-tetramethyl-benzotriazole]",,,,,,"activity against CK2 (in words) [6]: low, but detectable, activity"
"Brc1c(Br)c(Br)c2[nH]cnc2c1Br [TBBz, 4,5,6,7-tetrabromobenzimidazole]",,,,,,Ki [6]: low µM and sub-µM range; activity relative to TBBt (fold less active) [6]: 4 fold
"Clc1c(Cl)c(Cl)c2[nH]nnc2c1Cl [4,5,6,7-tetrachloro-benzotriazole]",,,,,,activity against CK2 (in words) [6]: moderate activity
"Brc1cc2[nH]nnc2c(Br)c1Br [4,5,6-Br3Bt]",52.3,0.38 ± 0.02,62.3,5.91,-40.9,"solubility (in words) [3, 8]: visibly higher; solubility (in words) ([3]; neutral pH): as low as for TBBt"
"Brc1c(Br)c(Br)c2[nH]nnc2c1Br [TBBt, 4,5,6,7-tetrabromobenzotriazole, reference compound]",49.7,,218,,-38.0,solubility (in words) ([3]; neutral form of the ligand): very poorly soluble
Brc1cccc2[nH]nnc12 [4-BrBt],56.7,119 ± 10,3870,7.08,-53.3,
Brc1ccc2nn[nH]c2c1 [5-BrBt],58.1,26 ± 3,2770,7.55,-50.7,
"c1ccc2[nH]nnc2c1 [Bt, benzotriazole, reference compound]",59.5,> 2000,196000,8.56,-59.9,inhibitory activity against CK2α (in words) [2]: totally inactive; IC50 ([2]; as stated in legend of Figure 5): > 2000 µM
"Brc1cc(Br)c2nn[nH]c2c1 [4,6-Br2Bt]",54.2,10 ± 2.2,234,6.38,-45.5,
"Brc1cc2nn[nH]c2cc1Br [5,6-Br2Bt]",55.8,0.56 ± 0.02,231,6.93,-44.4,"solubility (in words) [3, 8]: visibly higher; solubility (in words) ([3]; neutral pH): as low as for TBBt"
"Brc1ccc(Br)c2[nH]nnc12 [4,7-Br2Bt]",53.4,72 ± 11,1980,5.84,-48.0,
"Brc1ccc2[nH]nnc2c1Br [4,5-Br2Bt]",54.3,10.6 ± 0.9,499,6.49,-46.8,
